In ChEMBL document CHEMBL3885861, “Open TG-GATES”:

Organism: Rattus norvegicus
Assay: Open TG-GATES - Regimen: Single
Type: toxicity, organism-based, Sprague-Dawley
Set-up: regimen Single, gender Male, age 6 weeks
Conditions: in vivo, po, route gavage; for APTT / Bas / Eos / Fbg / Hb / Ht / Lym / MCH / MCHC / MCV / Mono / Neu / Plat / RBC / Ret / WBC: tissue Blood; for KIDNEY_L / KIDNEY_R / KIDNEY_TOTAL: tissue Kidney; for LIVER: tissue Liver; for ALP / ALT / AST / BUN / CRE / Ca / Cl / DBIL / GLC / IP / K / LDH / Na / PL / RALB / TBIL / TC / TG / TP / gamma-GTP: tissue Plasma
[1] = 0 mg/kg, 3 h, dose level Control
[2] = 0 mg/kg, 6 h, dose level Control
[3] = 0 mg/kg, 9 h, dose level Control
[4] = 0 mg/kg, 24 h, dose level Control
[5] = 450 mg/kg, 24 h, dose level Low

## CC(=O)Oc1ccccc1C(=O)O [ASPIRIN]
[1]
  TERMINAL_BW: 221 g
  APTT: 17.5 s
  Bas: 0.2%
  Eos: 1.2%
  Fbg: 226.6 mg/dL
  Hb: 13.4 g/dL
  Ht: 37.1%
  Lym: 75.4%
  MCH: 22 pg
  MCHC: 36.1%
  MCV: 60.8 fL
  Mono: 2.2%
  Neu: 20%
  Plat: 118.6 x10_4/uL
  RBC: 611.4 x10_4/ul
  Ret: 8%
  WBC: 87.8 x10_2/uL
  KIDNEY_L: 1 g
  KIDNEY_R: 1 g
  KIDNEY_TOTAL: 2 g
  LIVER: 9.9 g
  ALP: 895.2 IU/L
  ALT: 34.8 IU/L
  AST: 72.4 IU/L
  BUN: 9.8 mg/dL
  CRE: 0.4 mg/dL
  Ca: 10.7 mg/dL
  Cl: 103.8 meq/L
  DBIL: 0.066 mg/dL
  GLC: 198.2 mg/dL
  IP: 9.6 mg/dL
  K: 3.9 meq/L
  LDH: 186.2 IU/L
  Na: 142.4 meq/L
  PL: 138.4 mg/dL
  RALB: 3.4 g/dL
  TBIL: 0.1 mg/dL
  TC: 77 mg/dL
  TG: 48.8 mg/dL
  TP: 5.5 g/dL
  gamma-GTP: 1.2 IU/L
[2]
  TERMINAL_BW: 217.3 g
  APTT: 17.7 s
  Bas: 0%
  Eos: 0.8%
  Fbg: 235 mg/dL
  Hb: 13.9 g/dL
  Ht: 38.3%
  Lym: 77.2%
  MCH: 22 pg
  MCHC: 36.3%
  MCV: 60.5 fL
  Mono: 2.4%
  Neu: 18.4%
  Plat: 131.2 x10_4/uL
  RBC: 632.8 x10_4/ul
  Ret: 7.8%
  WBC: 104.9 x10_2/uL
  KIDNEY_L: 0.9 g
  KIDNEY_R: 0.9 g
  KIDNEY_TOTAL: 1.9 g
  LIVER: 9 g
  ALP: 815 IU/L
  ALT: 32 IU/L
  AST: 68.4 IU/L
  BUN: 9 mg/dL
  CRE: 0.4 mg/dL
  Ca: 10.6 mg/dL
  Cl: 103.2 meq/L
  DBIL: 0.07 mg/dL
  GLC: 185.8 mg/dL
  IP: 9.5 mg/dL
  K: 3.8 meq/L
  LDH: 208.8 IU/L
  Na: 141.2 meq/L
  PL: 139.2 mg/dL
  RALB: 3.4 g/dL
  TBIL: 0.1 mg/dL
  TC: 80.4 mg/dL
  TG: 62.8 mg/dL
  TP: 5.5 g/dL
  gamma-GTP: 1 IU/L
[3]
  TERMINAL_BW: 214.9 g
  APTT: 17.3 s
  Bas: 0%
  Eos: 0.8%
  Fbg: 224 mg/dL
  Hb: 14 g/dL
  Ht: 38.7%
  Lym: 80.2%
  MCH: 22.2 pg
  MCHC: 36.3%
  MCV: 61.1 fL
  Mono: 2.4%
  Neu: 15.2%
  Plat: 121.8 x10_4/uL
  RBC: 632.8 x10_4/ul
  Ret: 8%
  WBC: 88.9 x10_2/uL
  KIDNEY_L: 0.9 g
  KIDNEY_R: 0.9 g
  KIDNEY_TOTAL: 1.8 g
  LIVER: 8.6 g
  ALP: 795.2 IU/L
  ALT: 31.2 IU/L
  AST: 64.8 IU/L
  BUN: 9.4 mg/dL
  CRE: 0.4 mg/dL
  Ca: 10.4 mg/dL
  Cl: 104 meq/L
  DBIL: 0.066 mg/dL
  GLC: 206.6 mg/dL
  IP: 10 mg/dL
  K: 3.8 meq/L
  LDH: 205.6 IU/L
  Na: 141.4 meq/L
  PL: 128.6 mg/dL
  RALB: 3.4 g/dL
  TBIL: 0.1 mg/dL
  TC: 69.2 mg/dL
  TG: 46.2 mg/dL
  TP: 5.6 g/dL
  gamma-GTP: 1.2 IU/L
[4]
  TERMINAL_BW: 234.6 g
  APTT: 18.4 s
  Bas: 0.8%
  Eos: 1%
  Fbg: 222.8 mg/dL
  Hb: 13.8 g/dL
  Ht: 37.7%
  Lym: 77.2%
  MCH: 22.6 pg
  MCHC: 36.6%
  MCV: 61.7 fL
  Mono: 2.8%
  Neu: 17.8%
  Plat: 132 x10_4/uL
  RBC: 611.8 x10_4/ul
  Ret: 7.1%
  WBC: 109.6 x10_2/uL
  KIDNEY_L: 1 g
  KIDNEY_R: 1 g
  KIDNEY_TOTAL: 2 g
  ALP: 1023.4 IU/L
  ALT: 39 IU/L
  AST: 72.4 IU/L
  BUN: 15.8 mg/dL
  CRE: 0.4 mg/dL
  Ca: 10.6 mg/dL
  Cl: 103.6 meq/L
  DBIL: 0.062 mg/dL
  GLC: 204.2 mg/dL
  IP: 7.8 mg/dL
  K: 3.9 meq/L
  LDH: 207.2 IU/L
  Na: 141.2 meq/L
  PL: 153.4 mg/dL
  RALB: 3.5 g/dL
  TBIL: 0.1 mg/dL
  TC: 74 mg/dL
  TG: 124.4 mg/dL
  TP: 5.6 g/dL
  gamma-GTP: 1.2 IU/L
450 mg/kg, 3 h, dose level Low
  TERMINAL_BW: 217.1 g
  APTT: 19.8 s
  Bas: 0%
  Eos: 1%
  Fbg: 230.2 mg/dL
  Hb: 13.8 g/dL
  Ht: 38.5%
  Lym: 70%
  MCH: 21.2 pg
  MCHC: 36%
  MCV: 59 fL
  Mono: 3.4%
  Neu: 24.4%
  Plat: 136.3 x10_4/uL
  RBC: 653 x10_4/ul
  Ret: 7.3%
  WBC: 89.4 x10_2/uL
  KIDNEY_L: 0.9 g
  KIDNEY_R: 0.9 g
  KIDNEY_TOTAL: 1.8 g
  LIVER: 8.7 g
  ALP: 1084 IU/L
  ALT: 45 IU/L
  AST: 85.8 IU/L
  BUN: 14.4 mg/dL
  CRE: 0.4 mg/dL
  Ca: 9 mg/dL
  Cl: 103.6 meq/L
  DBIL: 0.06 mg/dL
  GLC: 189.2 mg/dL
  IP: 8.7 mg/dL
  K: 3.3 meq/L
  LDH: 228.8 IU/L
  Na: 141.2 meq/L
  PL: 96.6 mg/dL
  RALB: 3.6 g/dL
  TBIL: 0.1 mg/dL
  TC: 60.4 mg/dL
  TG: 20.4 mg/dL
  TP: 5.7 g/dL
  gamma-GTP: 1.2 IU/L
450 mg/kg, 6 h, dose level Low
  TERMINAL_BW: 218.6 g
  APTT: 21.5 s
  Bas: 0%
  Eos: 0.8%
  Fbg: 230.4 mg/dL
  Hb: 13.9 g/dL
  Ht: 38.2%
  Lym: 71%
  MCH: 22.2 pg
  MCHC: 36.3%
  MCV: 61.1 fL
  Mono: 3.2%
  Neu: 24%
  Plat: 124.8 x10_4/uL
  RBC: 626.8 x10_4/ul
  Ret: 8.1%
  WBC: 90.8 x10_2/uL
  KIDNEY_L: 1 g
  KIDNEY_R: 1 g
  KIDNEY_TOTAL: 2 g
  LIVER: 9 g
  ALP: 834.4 IU/L
  ALT: 34.8 IU/L
  AST: 72.6 IU/L
  BUN: 14.6 mg/dL
  CRE: 0.4 mg/dL
  Ca: 9.2 mg/dL
  Cl: 105 meq/L
  DBIL: 0.056 mg/dL
  GLC: 204 mg/dL
  IP: 7.7 mg/dL
  K: 3.4 meq/L
  LDH: 221.2 IU/L
  Na: 141 meq/L
  PL: 113.2 mg/dL
  RALB: 3.5 g/dL
  TBIL: 0.1 mg/dL
  TC: 67.8 mg/dL
  TG: 32.8 mg/dL
  TP: 5.6 g/dL
  gamma-GTP: 1 IU/L
450 mg/kg, 9 h, dose level Low
  TERMINAL_BW: 215.1 g
  APTT: 21.4 s
  Bas: 0%
  Eos: 0.8%
  Fbg: 220.4 mg/dL
  Hb: 13.6 g/dL
  Ht: 38.2%
  Lym: 68.2%
  MCH: 21.9 pg
  MCHC: 35.5%
  MCV: 61.8 fL
  Mono: 2.2%
  Neu: 28%
  Plat: 124.6 x10_4/uL
  RBC: 619.4 x10_4/ul
  Ret: 8.4%
  WBC: 94.9 x10_2/uL
  KIDNEY_L: 1 g
  KIDNEY_R: 1 g
  KIDNEY_TOTAL: 1.9 g
  LIVER: 7.9 g
  ALP: 828 IU/L
  ALT: 34.4 IU/L
  AST: 77.4 IU/L
  BUN: 13.2 mg/dL
  CRE: 0.4 mg/dL
  Ca: 9.1 mg/dL
  Cl: 106.8 meq/L
  DBIL: 0.05 mg/dL
  GLC: 201.2 mg/dL
  IP: 8.3 mg/dL
  K: 3.4 meq/L
  LDH: 210.2 IU/L
  Na: 141.2 meq/L
  PL: 93.4 mg/dL
  RALB: 3.3 g/dL
  TBIL: 0.096 mg/dL
  TC: 55.2 mg/dL
  TG: 12.6 mg/dL
  TP: 5.4 g/dL
  gamma-GTP: 0.8 IU/L
[5]
  TERMINAL_BW: 217.9 g
  APTT: 24.7 s
  Bas: 0.4%
  Eos: 1%
  Fbg: 222 mg/dL
  Hb: 14.4 g/dL
  Ht: 38.6%
  Lym: 79.8%
  MCH: 22.7 pg
  MCHC: 37.2%
  MCV: 60.9 fL
  Mono: 2.2%
  Neu: 16.2%
  Plat: 129 x10_4/uL
  RBC: 633.6 x10_4/ul
  Ret: 7.2%
  WBC: 106.4 x10_2/uL
  KIDNEY_L: 1 g
  KIDNEY_R: 1 g
  KIDNEY_TOTAL: 1.9 g
  LIVER: 9.2 g
  ALP: 905.4 IU/L
  ALT: 43.4 IU/L
  AST: 82.4 IU/L
  BUN: 15.8 mg/dL
  CRE: 0.5 mg/dL
  Ca: 10.4 mg/dL
  Cl: 104.6 meq/L
  DBIL: 0.048 mg/dL
  GLC: 196.4 mg/dL
  IP: 8.6 mg/dL
  K: 3.7 meq/L
  LDH: 199.2 IU/L
  Na: 141 meq/L
  PL: 107 mg/dL
  RALB: 3.5 g/dL
  TBIL: 0.092 mg/dL
  TC: 56 mg/dL
  TG: 39.6 mg/dL
  TP: 5.6 g/dL
  gamma-GTP: 1 IU/L
